Measured values published in patent US9073930B2, “Dipeptidyl peptidase-IV inhibitors for the treatment or prevention of diabetes” (Merck Sharp & Dohme Corp., priority 2012, dated 2015).

Columns and labels:
DPP-4 = DPP-4 (Homo sapiens, UniProt P27487); conditions: cited from earlier work
hematopoiesis = conditions: mouse model of cyclophosphamide-induced neutropenia; WO 99/56753; cited from earlier work
[1] = biological target: T1, dipeptidyl peptidase-IV enzyme (DPP-4) (Homo sapiens, UniProt P27487); assay: Continuous fluorometric DPP-4 inhibition assay with substrate Gly-Pro-AMC; assay type: biochemical; conditions: soluble human DPP-4, 50 μM Gly-Pro-AMC, pH 7.5, room temperature
T1 construct: soluble (transmembrane domain and cytoplasmic extension excluded) human protein; made in house; host or cells: baculovirus expression system (Bac-To-Bac, Gibco BRL)
Method: Inhibition constants are determined as follows. A continuous fluorometric assay is employed with the substrate Gly-Pro-AMC, which is cleaved by DPP-4 to release the fluorescent AMC leaving group. The kinetic parameters that describe this reaction are as follows: Km=50 μM; kcat=75 s^−1; kcat/Km=1.5×10^6 M^−1 s^−1. A typical reaction contains approximately 50 pM enzyme, 50 μM Gly-Pro-AMC, and buffer (100 mM HEPES, pH 7.5, 0.1 mg/ml BSA) in a total reaction volume of 100 μL. Liberation of AMC is monitored continuously in a 96-well plate fluorometer using an excitation wavelength of 360 nm and an emission wavelength of 460 nm. Under these conditions, approximately 0.8 μM AMC is produced in 30 minutes at 25 degrees C. The enzyme used in these studies was soluble (transmembrane domain and cytoplasmic extension excluded) human protein produced in a baculovirus expression system (Bac-To-Bac, Gibco BRL). […] To measure the dissociation constants for compounds, solutions of inhibitor in DMSO were added to reactions containing enzyme and substrate (final DMSO concentration is 1%). All experiments were conducted at room temperature using the standard reaction conditions described above. To determine the dissociation constants (Ki), reaction rates were fit by non-linear regression to the Michaelis-Menton equation for competitive inhibition. […]

T1 sequence (P27487 29-766 limits assumed): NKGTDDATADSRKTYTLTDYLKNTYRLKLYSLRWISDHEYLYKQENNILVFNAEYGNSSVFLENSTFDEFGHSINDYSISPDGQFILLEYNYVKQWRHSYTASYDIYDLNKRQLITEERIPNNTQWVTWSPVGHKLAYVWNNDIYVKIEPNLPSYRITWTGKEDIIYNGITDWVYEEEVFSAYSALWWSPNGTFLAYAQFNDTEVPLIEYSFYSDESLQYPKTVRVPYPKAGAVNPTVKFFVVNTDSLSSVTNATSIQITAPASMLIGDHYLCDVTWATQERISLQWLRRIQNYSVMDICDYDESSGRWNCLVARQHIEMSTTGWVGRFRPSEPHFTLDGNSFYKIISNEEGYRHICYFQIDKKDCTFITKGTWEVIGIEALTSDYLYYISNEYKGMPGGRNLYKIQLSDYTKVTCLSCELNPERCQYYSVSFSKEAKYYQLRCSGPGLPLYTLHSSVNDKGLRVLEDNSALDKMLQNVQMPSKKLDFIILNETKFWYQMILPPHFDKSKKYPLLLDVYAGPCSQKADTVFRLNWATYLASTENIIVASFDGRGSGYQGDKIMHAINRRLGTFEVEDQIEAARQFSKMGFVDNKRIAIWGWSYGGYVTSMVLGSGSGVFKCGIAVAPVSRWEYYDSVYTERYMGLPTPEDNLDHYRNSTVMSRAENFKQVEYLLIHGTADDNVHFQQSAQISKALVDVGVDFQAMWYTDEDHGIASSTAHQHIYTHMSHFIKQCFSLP
Chain of DPP-4 (P27487 whole entry, species assumed): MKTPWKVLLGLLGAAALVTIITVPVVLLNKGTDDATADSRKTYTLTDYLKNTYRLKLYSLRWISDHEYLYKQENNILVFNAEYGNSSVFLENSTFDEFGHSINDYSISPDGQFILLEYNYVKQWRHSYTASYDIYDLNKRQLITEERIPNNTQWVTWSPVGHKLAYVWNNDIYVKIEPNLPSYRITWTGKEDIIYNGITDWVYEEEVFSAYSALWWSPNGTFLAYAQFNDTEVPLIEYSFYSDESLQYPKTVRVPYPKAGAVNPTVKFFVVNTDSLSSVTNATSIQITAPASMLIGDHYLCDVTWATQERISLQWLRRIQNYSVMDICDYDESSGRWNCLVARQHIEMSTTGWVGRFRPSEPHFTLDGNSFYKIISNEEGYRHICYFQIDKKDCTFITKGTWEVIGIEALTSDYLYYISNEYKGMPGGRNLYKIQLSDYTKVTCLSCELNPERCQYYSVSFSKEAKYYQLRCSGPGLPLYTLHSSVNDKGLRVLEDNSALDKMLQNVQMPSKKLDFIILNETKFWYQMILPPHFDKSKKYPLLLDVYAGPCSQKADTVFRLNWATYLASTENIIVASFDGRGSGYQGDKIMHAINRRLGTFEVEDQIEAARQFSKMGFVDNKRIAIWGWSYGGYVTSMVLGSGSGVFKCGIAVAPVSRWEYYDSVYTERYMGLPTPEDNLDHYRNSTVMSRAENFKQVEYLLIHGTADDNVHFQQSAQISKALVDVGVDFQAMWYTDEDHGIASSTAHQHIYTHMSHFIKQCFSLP

In the case of CC[C@H](C)[C@H](N)C(=O)N1CCC[C@H]1C(=O)N[C@H](C(=O)O)[C@@H](C)CC [diprotin A], the “degradation of GRF in plasma to GRF[3-44]” value (DPP-4) is listed as “prevented”.

In the case of CC(C)[C@H](N)C(=O)N1CCC[C@H]1B(O)O [Val-Boro-Pro], the hematopoiesis (hematopoiesis) is listed as “stimulated hematopoiesis”.

Work on CS(=O)(=O)n1cc2c(n1)CN([C@H]1CO[C@H](c3sccc3F)[C@@H](N)C1)C2 (racemic) [Example 1] yielded an IC50 [1] of 0.09 µM.

With CS(=O)(=O)n1cc2c(n1)CN([C@H]1CO[C@H](c3cc(F)cnc3F)[C@@H](N)C1)C2 [Example 2] the IC50 [1] was 0.1 µM.
